The source of these data is patent US6469028B1, “Synthesis and use of retinoid compounds having negative hormone and/or anatgonist activities” (Allergan, Inc., priority 1995, dated 2002).

In one test the test system is rabbits. In words: Example 24: rabbit model of proliferative vitreoretinopathy (PVR). In kind it is in vivo.
In another test the test system is ER-RAR-β. In words: Example 10: repression of basal gene activity, ERE-tk-Luc, CV-1 cells. Particulars: 10^−9 to 10^−6 M, 18 hours, single agent. The format is cell-based. The text has this:
(§1) More specifically, these procedures employed the ER-RAR chimeric receptor and ERE-tk-Luc reporter system. The ERE-tk-Luc plasmid includes the region −397 to −87 of the estrogen responsive 5′-flanking region of the Xenopus vitellogenin A2 gene, described by Klein-Hitpass, et al. in Cell 46:1053-1061 (1986), ligated upstream of the HSV thymidine kinase promoter and luciferase reporter gene of plasmid tk-Luc. The ER-RAR chimeric receptors consisted of the estrogen receptor DNA binding domain fused to the “D-E-F” domain of the RARs. Those having ordinary skill in the art appreciate this “D-E-F” domain functions to bind retinoid, to provide a retinoid inducible transactivation function and to provide a contact site for heterodimerization with RXR. Thus, luciferase expression in this reporter system was dependent on activation of the transfected chimeric receptor construct.
(§2) CV-1 cells were co-transfected with the ERE-tk-Luc reporter plasmid and either ER-RAR-α, ER-RAR-β or ER-RAR-γ expression plasmids. The ERE-tk-Luc plasmid contained the estrogen-responsive promoter element of the Xenopus laevis vitellogenin A2 gene and was substantially identical to the reporter plasmid described by Klein-Hitpass et al. in Cell 46:1053 (1986), except that the CAT reporter gene was substituted by a polynucleotide sequence encoding luciferase. The ER-RAR-α, ER-RARβ and ER-RAR-γ chimeric receptor-encoding polynucleotides employed in the co-transfection have been described by Graupner et al. in Biochem. Biophys. Res. Comm. 179:1554 (1991). […] Calcium phosphate transfections were carried out exactly as described in Example 6 using 0.5 μg/well of reporter plasmid and either 0.05 μg, 0.10 μg or 0.2 μg/well of receptor plasmid. […] Cell lysates and luciferase activity measurements were performed as described in Example 6.

The test system of the next test is ER-RAR-α. The test is described as above. In kind it is cell-based. The note with it: 10^−9 to 10^−6 M, 18 hours, single agent.
Description: as §1, §2

The test system of the next test is ER-RAR-γ. The description is as above. In kind it is cell-based. Particulars: 10^−9 to 10^−6 M, 18 hours, single agent.
Description: as §1, §2

In the next test the test system is ECE16-1 cells. In words: Example 17: EGF dependent proliferation of ECE16-1 cells. The format is cell-based. As to the method: ECE16-1 cells were seeded at a density of 1×10^4 cells per cm^2 in complete medium containing DMEM:F12 (3:1), nonessential amino acids, 5% FBS, 5 μg/ml transferring, 2 nM of 3,3′,5 triiodothyronine (thyroid hormone or “T3”), 0.1 nNM cholera toxin, 2 mM L-glutamine, 1.8×10^−4 M adenine and 10 ng/ml EGF. Cells were allowed to attach to plates overnight and then shifted to defined medium containing DMEM:F12 (3:1), 2 mM L-glutamine, nonessential amino acids, 0.1% bovine serum albumin, 1.8×10^−4 M adenine, 5 μg/ml transferring, 2 nM T3, 50 μg/ml ascorbic acid, 100 ug/ml streptomycin, 100 units/ml penicillin and 50 μg/ml gentamicin. Defined medium (DM) was supplemented with 10 ng/ml EGF. […] After three days of treatment, cells were harvested as described by Hembree et al. in Cancer Res. 54:3160 (1994) and cell numbers determined using a COULTER counter.

The next test concerns the target T1, RARα (Homo sapiens, UniProt P10276).
T1 sequence (P10276 1-462): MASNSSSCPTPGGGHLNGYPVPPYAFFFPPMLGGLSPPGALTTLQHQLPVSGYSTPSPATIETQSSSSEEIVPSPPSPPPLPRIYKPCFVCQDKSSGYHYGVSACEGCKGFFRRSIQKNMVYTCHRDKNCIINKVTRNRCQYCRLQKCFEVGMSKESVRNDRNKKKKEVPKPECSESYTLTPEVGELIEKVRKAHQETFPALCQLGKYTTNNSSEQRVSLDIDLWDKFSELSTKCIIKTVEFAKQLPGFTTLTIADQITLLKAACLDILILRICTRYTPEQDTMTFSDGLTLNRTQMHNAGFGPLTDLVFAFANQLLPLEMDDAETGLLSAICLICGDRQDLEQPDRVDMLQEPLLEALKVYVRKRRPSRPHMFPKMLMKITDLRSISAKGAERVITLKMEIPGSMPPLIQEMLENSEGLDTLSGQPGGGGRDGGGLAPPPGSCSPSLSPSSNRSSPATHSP
The test can be described thus: Example 8: protease protection analysis. The format is biochemical. Also on record: host or cells: TNT-coupled reticulocyte lysate in vitro transcription-translation. Particulars: ATRA and AGN 193109 100 nM, AGN 193583 1000 nM; trypsin 25, 50 or 100 μg/ml, 10 minutes. As to the method: A plasmid constructed in the vector pGEM3Z (Pharmacia) and containing the RAR-α cDNA (Giguere et al. Nature 330:624 (1987)), was used in connection with the TNT-coupled reticulocyte lysate in vitro transcription-translation system (Promega) to prepare [^35S]-methionine labeled RAR-α. Limited proteolytic digestion of the labeled protein RAR-α was carried out according to the method described by Keidel et al. in Mol. Cell. Biol. 14:287 (1994). […] After ligand binding, 1 μl of appropriately concentrated trypsin was added to the mixture to give final concentrations of 25, 50 or 100 μg/ml. Samples were incubated at room temperature for 10 minutes and trypsin digestion stopped by addition of SDS-sample buffer. Samples were subjected to polyacrylamide gel electrophoresis and autoradiographed according to standard procedures.

Test [1] concerns patients having retinal detachment resulting from PVR. The note with it: 40 mg oral AGN 193109 + 4 mg oral 13-cis retinoic acid twice daily for four weeks.

In the case of `Cc1ccc(C2=CCC(C)(C)c3ccc(C#Cc4ccc(C(=O)O)cc4)cc32)cc1` [Compound 60, 4-[(5,6-dihydro-5,5-dimethyl-8-(4-methylphenyl)-2-naphthalenyl)ethynyl]benzoic acid], the “frequency and severity of tractional retinal detachment” value with rabbits (AGN 193109 100 μg + retinoic acid 10 μg intravitreal) was “significantly reduced frequency and severity of retinal detachment”. For the same molecule, the “incidence and severity of retinal detachment” value in the test with rabbits (second study, AGN 193109 100 μg + thyroid hormone 100 μg) is “significantly reduced incidence and severity of retinal detachment”. Further, the “retinal detachment compared with control rabbits” value in the test on rabbits (second study, single agent 100 μg intravitreal) is recorded as “does not inhibit retinal detachment”. Further, the luciferase reporter activity result in the test on ER-RAR-β is listed as “dose responsive decrease in luciferase reporter activity”; in the test on ER-RAR-α it was “substantially unaffected”; in the test with ER-RAR-γ, “dose responsive decrease in luciferase reporter activity”. Also, in the test with ECE16-1 cells (1000 nM AGN 193109 alone), the EGF mediated proliferation entry is listed as “no effect on the EGF mediated proliferation increase”. Besides, the “antagonism of AGN 191183 mediated growth inhibition” value with ECE16-1 cells (AGN 193109 10 nM with 10 nM AGN 191183) was “approximately 50%”. The “antagonism of AGN 191183 antiproliferative effect” value in the test on ECE16-1 cells (ten-fold molar excess of AGN 193109 over 10 nM AGN 191183) is “completely reversed the antiproliferative effect of AGN 191183”. In addition, the “pattern of trypsin sensitivity of labeled RAR-α after prebinding” value on RARα was “a protease protection pattern that was indistinguishable from that produced by prebinding of ATRA”. Moreover, in test [1], the “therapeutic outcome versus 40 mg oral 13-cis retinoic acid” value was “equal to or better than”.
